{"source": "patent US20210260090A1", "about": "“USE OF SGLT-2 INHIBITORS FOR THE PREVENTION AND/OR TREAT-MENT OF CARDIAC DISEASES IN FELINES” (Boehringer Ingelheim Vetmedica GmbH, priority 2020, published 2021)", "key": {"[1]": {"test_system": "cats with hypertrophic cardiomyopathy (HCM) and recent heart failure", "experiment": "Exploratory clinical field study of velagliflozin in cats (Example 2, case 101)", "format": "in vivo", "details": "for NT-proBNP: cardiac biomarker, screening (D −7) 177; for NT-proBNP / Grade of murmur / Resting respiratory rate / Heart rate / Point of maximum intensity / Presence of arrythmia / Presence of gallop sound / Timing of murmur / Presence of murmur / LA/Ao (left atrium to aorta ratio) / LAD max (mm) (Left atrium measured as right parasternal long-axis): cat 101, 1 mg/kg orally once per day; for BPM (mmHG): cat 101, 1 mg/kg bodyweight orally once per day, screening (D −7) 128; for Grade of murmur: screening (D −7) 4; for Resting respiratory rate: screening (D −7) 28; for Heart rate: screening (D −7) 140; for Point of maximum intensity: screening (D −7) left apical; for Presence of arrythmia / Presence of gallop sound: screening (D −7) no; for Timing of murmur: screening (D −7) systolic; for Presence of murmur: screening (D −7) yes; for LA/Ao (left atrium to aorta ratio) / LAD max (mm) (Left atrium measured as right parasternal long-axis): echocardiography; for LA/Ao (left atrium to aorta ratio): screening (D −7) 1.63; for LAD max (mm) (Left atrium measured as right parasternal long-axis): screening (D −7) 16.3", "source_text": "In an exploratory clinical field study (prospective, baseline controlled, open label and multi-site) under real world conditions, four cats were screened for eligibility for compassionate use of velagliflozin to treat cardiomyopathies and heart failure in cats. […] Due to non-compliance to treatment regime of one pet owner only one cat remained in the study over the complete planned time period of 90 days. Clinical symptoms (evaluated in a physical examination according to Good Veterinary Practice), echocardiographic parameters (always done by the same person at each visit and according to the ACVIM consensus statement guidelines for the classification, diagnosis, and management of cardiomyopathies in cats), blood parameters (evaluated by IDEXX Bioresearch Laboratories, Germany), number of events (re-occurrence of heart failure, cardiac related death or euthanasia) and time to event in days were documented at each visit on the respective Case Report Form.\nCase 101 was a 10 years old, female spayed Maine Coon cat, diagnosed with hypertrophic cardiomyopathy (HCM) and previous congestive heart failure.\nLA (Left atrium dimension measured as right parasternal short-axis); Ao (Aortic root diameter); LA/Ao, left atrium to aorta ratio; IVSd (interventricular septal end diastolic dimension, i.e. the thickness of the interventricular septum); LAD (Left atrium measured as right parasternal long-axis)"}, "[2]": {"experiment": "Plasma NEFA, cholesterol and BHB in cats before and after four week treatment (FIG. 1)", "format": "in vivo, cat", "details": "end of four week treatment period (post) vs pre, versus control", "source_text": "A significant treatment effect, an increase in blood lipids (NEFA, cholesterol) and plasma concentrations of BHB is noted."}, "[3]": {"test_system": "cat patients with every possible phenotype of cardiomyopathy (HCM, RCM, UCM, DCM and ARVC)", "experiment": "Clinical field study in client-owned cat patients with cardiomyopathy (Example 1)", "format": "in vivo", "details": "1 mg/kg bodyweight orally once daily", "experimental": "Client-owned cat patients (older than 1 year) with every possible phenotype of cardiomyopathy (HCM, RCM, UCM, DCM and ARVC) with or without clinical symptoms (e.g. congestive heart failure) are treated orally and once daily with a velagliflozin dosage of 1 mg/kg bodyweight.\nDuring the study period the body weight, body condition score, blood pressure and the cardiovascular system (including heart rates, rhythm, presence of gallop sound or murmur and intensity) are examined on a regular basis during the visits at the site by the investigator. Additionally, thoracic radiographs (in the right lateral and dorso ventral view), echocardiography (including LV septal & free wall thickness, LVIDD, LVIDS (FS %), LA/Ao, LAD, ejection fraction) and electrocardiography are performed. In order to obtain an overview as complete as possible regular blood tests include a complete hematology (white blood cells (WBC), WBC differential, red blood cells, hemoglobin, hematocrit, Heinz bodies, platelet count), a biochemistry panel (total protein, Albumin, Globulin, Alkaline phosphatase (ALP), Alanine transaminase (ALT), Aspartate transaminase (AST), Total bilirubin, Creatinine, Blood urea nitrogen or urea (BUN), Calcium, Sodium, Potassium, Chloride, Phosphorus, Glucose, Cholesterol, Triglycerides, Fructosamine), the measurement of total T4, ketone bodies and cardiac biomarkers (Plasma NT-pro BNP, Cardiac troponin I, ST2).\nVariables of interest are the number of events defined as cardiac death, cardiac related euthanasia and (re-) occurrence of congestive heart failure and the time to event (survival time of the cat patients)."}, "[4]": {"details": "cat 101, treatment period Day 1 until Day 90, 1 mg/kg orally once per day"}, "[5]": {"details": "compared to placebo on top of standard of care"}}}
{"smiles": "N#Cc1ccc([C@@H]2O[C@H](CO)[C@@H](O)[C@H](O)[C@H]2O)cc1Cc1ccc(C2CC2)cc1", "note": "[velagliflozin, Velagliflozin]", "values": [{"measurement": "NT-proBNP", "setting": "[1]; Visit 2 (D 45)", "value": 104, "unit": "pmol/L"}, {"measurement": "NT-proBNP", "setting": "[1]; Visit 3 (D 90)", "value": 39, "unit": "pmol/L"}, {"measurement": "BPM (mmHG)", "setting": "[1]; Visit 2 (D 45)", "value": 136, "unit": "mmHG"}, {"measurement": "BPM (mmHG)", "setting": "[1]; Visit 3 (D 90)", "value": 124, "unit": "mmHG"}, {"measurement": "Grade of murmur", "setting": "[1]; Visit 2 (D 45)", "value": 3}, {"measurement": "Resting respiratory rate", "setting": "[1]; Visit 2 (D 45)", "value": 34}, {"measurement": "Heart rate", "setting": "[1]; Visit 2 (D 45)", "value": 180}, {"measurement": "Point of maximum intensity", "setting": "[1]; Visit 2 (D 45)", "value": "left apical"}, {"measurement": "Presence of arrythmia", "setting": "[1]; Visit 2 (D 45)", "value": "no"}, {"measurement": "Presence of gallop sound", "setting": "[1]; Visit 2 (D 45)", "value": "no"}, {"measurement": "Timing of murmur", "setting": "[1]; Visit 2 (D 45)", "value": "systolic"}, {"measurement": "Presence of murmur", "setting": "[1]; Visit 2 (D 45)", "value": "yes"}, {"measurement": "Grade of murmur", "setting": "[1]; Visit 3 (D 90)", "value": 2}, {"measurement": "Resting respiratory rate", "setting": "[1]; Visit 3 (D 90)", "value": 34}, {"measurement": "Heart rate", "setting": "[1]; Visit 3 (D 90)", "value": 176}, {"measurement": "Point of maximum intensity", "setting": "[1]; Visit 3 (D 90)", "value": "left apical"}, {"measurement": "Presence of arrythmia", "setting": "[1]; Visit 3 (D 90)", "value": "no"}, {"measurement": "Presence of gallop sound", "setting": "[1]; Visit 3 (D 90)", "value": "no"}, {"measurement": "Timing of murmur", "setting": "[1]; Visit 3 (D 90)", "value": "systolic"}, {"measurement": "Presence of murmur", "setting": "[1]; Visit 3 (D 90)", "value": "yes"}, {"measurement": "echocardiographic parameters (Table 2), cardiac biomarker (Table 3) and abnormal heart murmur over the treatment period", "setting": "[1]; cat 101, D −7 to D 90", "value": "improved continuously"}, {"measurement": "general health at study termination", "setting": "[1]; cat 101, end of 90 day study", "value": "good general health"}, {"measurement": "adverse event", "setting": "[1]; [4]", "value": "no adverse event"}, {"measurement": "re-occurrence of heart failure or pulmonary oedema", "setting": "[1]; [4]", "value": "no heart failure or pulmonary oedema re-occurred"}, {"measurement": "LA/Ao (left atrium to aorta ratio)", "setting": "[1]; Visit 2 (D 45)", "value": 1.36}, {"measurement": "LAD max (mm) (Left atrium measured as right parasternal long-axis)", "setting": "[1]; Visit 2 (D 45)", "value": 13.8, "unit": "mm"}, {"measurement": "LA/Ao (left atrium to aorta ratio)", "setting": "[1]; Visit 3 (D 90)", "value": 1.07}, {"measurement": "LAD max (mm) (Left atrium measured as right parasternal long-axis)", "setting": "[1]; Visit 3 (D 90)", "value": 12.6, "unit": "mm"}, {"measurement": "plasma cholesterol", "setting": "[2]", "value": "increase"}, {"measurement": "plasma concentrations of beta-hydroxybutyrat (BHB)", "setting": "[2]", "value": "increase"}, {"measurement": "plasma non-esterified fatty acids (NEFA)", "setting": "[2]", "value": "increase"}, {"measurement": "clinical parameters (e.g. appetite, activity level and breathing)", "setting": "[3]; compared to placebo on top of SoC", "value": "improve significantly"}, {"measurement": "survival time", "setting": "[3]; [5]", "value": "significant and clinically relevant prolongation"}, {"measurement": "time to event (cardiac death/euthanasia and (re-)occurrence of congestive heart failure)", "setting": "[3]; [5]", "value": "significant and clinically relevant prolongation"}]}
